Experimental data from US9187518B2, “Antiangiogenic brassinosteroid compounds” (CONSEJO NACIONAL DE INVESTIGACIONES CIENTIFICAS Y TECNICAS …, priority 2011, dated 2015).

Tested on: VEGF promoter
Test: VEGF expression (pVEGF-LUC reporter) in J774A.1 cells
Assay type: cell-based, murine
From the text: The expression vectors pVEGF-LUC (encoding firefly luciferase) and pβ-gal were kindly donated by members of the research group of Dr. Arzt (FCEyN, UBA, Argentina).
J774A.1 cells grown to confluence in 6-well micro-plates were transfected with […] of pVEGF-LUC and pβ-gal plasmids diluted in the Opti MEM medium, without serum and antibiotics, and in the presence of lipofectamine (DNA lipofectamine TM 2000) as a reagent for transfection, according to the manufacturer's instructions. After 4 to 6 h of incubation at 37° C. in 5% CO2 atmosphere, the medium was discarded and replaced by fresh Opti MEM with 10% FBS, without antibiotics, and incubated at 37° C. in atmosphere 5% CO2 for 24 h.
The medium was discarded and cells were stimulated with 100 ng/ml LPS and 1 ng/ml of IL-6 in Opti MEM medium with 10% FBS. After 8 h and 16 h stimulation, the medium was discarded and the cells were lifted by scrapping in 0.1 ml per well of 1× lysis buffer. The samples were stored at −70° C. until processing.
In order to measure luciferase activity, 20 μl of each sample were mixed with 80 μl of substrate for firefly luciferase and measured in a luminometer. In the same samples, β-gal activity was measured in 96-well microplates. To do this, 20 μl of each sample were mixed with 80 μl of substrate for β-galactosidase and incubated at 37° C. until color developed. The absorbances of these mixtures were read in an ELISA reader at 450 nm.
We determined the expression of luciferase as a reporter of VEGF promoter activity values obtained by normalizing the against β-gal activity for each sample.
Thus, J774A.1 cells grown in 6-well microplates were transfected with plasmids pVEGF-LUC and pβ-gal. At 24 h post-transfection, cells were stimulated with 100 ng/ml of LPS and […], in the absence and presence of […] of Compound 1. Then, we measured the expression of VEGF and β-gal in the harvested samples and determined the expression of luciferase as a reporter of VEGF promoter activity, by normalizing the values obtained with those of β-gal activity.

SMILES: CC[C@@H](C(C)C)[C@H](O)[C@@H](O)[C@@H](C)[C@H]1CC[C@H]2[C@@H]3CCC4=CC(=O)CC[C@]4(C)[C@H]3CC[C@]12C [Compound 1, (22S,23S)-22,23-dihydroxystigmast-4-en-3-one]
- VEGF expression (luciferase normalized to β-gal, VEGF/β-gal) (100 ng/ml LPS 8 h, Compound 1 (stimulated untreated 93201.5±26770.4)): 22098.5±4052.4
- VEGF expression (luciferase normalized to β-gal, VEGF/β-gal) (IL-6 16 h, Compound 1 (stimulated untreated 30929.5±5464)): 17900±2689.7
- VEGF expression (luciferase normalized to β-gal) (no stimulus, compound alone, vs baseline): did not induce the expression of VEGF
